Literature values, collected in patent publication US20250000898A1, “MAGNESIUM OXIDE-CONTAINING PHARMACEUTICAL COMPOSITION FOR TREATING PEDIATRIC CHRONIC FUNCTIONAL CONSTIPATION” (SETOLAS Holdings, Inc., priority 2021, published 2025).

What was measured:
[1] = tested on: children under 15 years of age diagnosed with chronic constipation; conditions: for percentage of patients treated successfully for constipation (success rate for treatment of constipation): children under 15 years, median age 2 years 11 months, 3 weeks (magnesium oxide: 50 mg/kg per day, 20 of 49 cases; lactulose: 9 of 50 cases)
[2] = 50 mg/kg daily, 3 weeks

SMILES	percentage of patients treated successfully for constipation (success rate for treatment of constipation) [1] [%]	average frequency of defecation ([1]; second and third weeks after administration, 50 mg/kg daily in two divided doses, 3 weeks)	average stool status score (Bristol Stool Scale) ([1]; second and third weeks after administration, 50 mg/kg daily, 3 weeks)	hypermagnesemia [2]
OC[C@H]1O[C@@H](O[C@@H]2[C@@H](CO)OC(O)(CO)[C@H]2O)[C@H](O)[C@@H](O)[C@H]1O (mixture of isomers) [lactulose]	18	–	–	–
[O]=[Mg] [magnesium oxide powder, magnesium oxide]	41	5.5±3.15	4.90±0.91	None of the patients exhibited hypermagnesemia
